# Data published in US9987266B2, “Alkyl-amide-substituted pyridyl compounds useful as modulators of IL-12, IL-23 and/or IFNα responses” (BRISTOL-MYERS SQUIBB COMPANY, priority 2013, dated 2018).
# pEC50, pIC50: −log10 of the molar value. Like-named read-outs stand apart in the source and are kept apart here.
# How the values were obtained:
# [1] = biological target: T1, recombinantly expressed His-tagged protein corresponding to amino acids 575-869 of human Tyk2 (Homo sapiens, UniProt P29597); test: Probe displacement assay (scintillation proximity, radiolabeled probe); type: binding; conditions: 2.5 nM Tyk2 (575-869), 40 nM [3H] probe, 30 minutes at room temperature
# T1 construct: made in house
# Method: The preparation of radiolabeled probe, (R)—N-(1-(3-(8-methyl-5-(methylamino)-8H-imidazo[4,5-d]thiazolo[5,4-b]pyridin-2-yl)phenyl)ethyl)-2-([^3H]methylsulfonyl)benzamide, was performed as described below: […]
# [2] = test system: Kit225 T cells with STAT-dependent luciferase reporter stimulated with human recombinant IL-23; test: Kit225 T cell assay, IL-23 stimulated STAT-dependent luciferase reporter; type: cell-based; conditions: for pIC50: KIT225, 20 ng/mL human recombinant IL-23, 5-6 hours, luciferase, read-out: IL-23 Kit225 Reporter, LE (IC50); for IC50: Homo sapiens, KIT225, read-out: IL-23 Kit225 Reporter, LE (IC50, μM)
# Method: (§1) Kit225 T cells with a stably-integrated STAT-dependent luciferase reporter were plated in RPMI (Gibco) containing 10% heat-inactivated FBS (Gibco) and 100 U/mL PenStrep (Gibco). The cells were then stimulated with either 20 ng/mL human recombinant IL-23 or 200 U/mL human recombinant IFNα (PBL InterferonSource) for 5-6 hours. Luciferase expression was measured using the STEADY-GLO® Luciferase Assay System (Promega) according to the manufacturer's instructions.
# [3] = test system: Kit225 T cells with STAT-dependent luciferase reporter stimulated with human recombinant IFNα; test: Kit225 T cell assay, IFNα stimulated STAT-dependent luciferase reporter; type: cell-based; conditions: for pIC50: KIT225, 200 U/mL human recombinant IFNα, 5-6 hours, luciferase, read-out: IFNa Kit225 Reporter, LE (IC50); for IC50: Homo sapiens, KIT225, read-out: IFNa Kit225 Reporter, LE (IC50, μM)
# Method: as §1
# T1 sequence (P29597 with tags, fused parts or gaps): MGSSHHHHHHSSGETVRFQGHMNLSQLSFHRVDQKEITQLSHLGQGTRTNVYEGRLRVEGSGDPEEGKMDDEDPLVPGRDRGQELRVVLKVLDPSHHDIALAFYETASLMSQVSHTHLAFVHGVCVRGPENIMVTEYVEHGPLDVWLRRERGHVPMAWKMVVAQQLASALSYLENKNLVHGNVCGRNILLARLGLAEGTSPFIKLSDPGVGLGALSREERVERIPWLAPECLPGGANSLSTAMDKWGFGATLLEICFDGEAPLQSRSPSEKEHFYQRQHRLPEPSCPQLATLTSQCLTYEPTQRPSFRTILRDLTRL
Structure (SMILES),pEC50 [1],pIC50 [2],pIC50 [3],IC50 [2] [µM],IC50 [3] [µM]
CNC(=O)c1cnc(NC(=O)C2CC2)cc1Nc1ccc(F)c(F)c1OC [Example 25],7.40,6.64,7.00,–,–
[2H]C([2H])([2H])NC(=O)c1cnc(NC(=O)C2CC2)cc1Nc1cccc(-c2ccnn2CC)c1OC [Example 38],6.80,5.82,5.78,–,–
[2H]C([2H])([2H])NC(=O)c1cnc(NC(=O)C2CC2)cc1Nc1cccc(-c2ncc(F)cn2)c1OC [Example 46],–,7.66,7.89,–,–
CNC(=O)c1cnc(NC(=O)C2CC2)cc1Nc1cccc(-c2nnc(C)o2)c1OC [Example 28],8.00,7.15,7.40,–,–
CNC(=O)c1cnc(NC(=O)[C@H]2CC2(C)C)cc1Nc1ccccc1S(C)(=O)=O [Example 8],6.60,5.33,6.00,–,–
CNC(=O)c1cnc(NC(=O)Cc2ccccc2)cc1Nc1ccccc1S(C)(=O)=O [Example 6],6.92,5.94,5.95,–,–
CNC(=O)c1cnc(NC(C)=O)cc1Nc1ccccc1S(C)(=O)=O [Example 2],6.37,5.15,4.90,–,–
CNC(=O)c1cnc(NC(=O)C2CC2(F)F)cc1Nc1ccccc1S(C)(=O)=O (stereo not shown) [Example 21],6.85,5.65,5.73,–,–
CNC(=O)c1cnc(NC(=O)C(C)C)cc1Nc1ccccc1S(C)(=O)=O [Example 7],6.34,6.40,5.38,–,–
[2H]C([2H])([2H])NC(=O)c1cnc(NC(=O)C2CC2)cc1Nc1cccc(-c2nnn(C)n2)c1OC [Example 44],–,8.64,8.93,–,–
CNC(=O)c1cnc(NC(=O)C2CC2)cc1Nc1cccc(-c2ncn(C)n2)c1OC [Example 30],8.21,7.52,8.00,–,–
CCCC(=O)Nc1cc(Nc2ccccc2S(C)(=O)=O)c(C(=O)NC)cn1 [Example 11],6.62,5.53,5.60,–,–
CNC(=O)c1cnc(NC(=O)C2CCCc3ccccc32)cc1Nc1ccccc1S(C)(=O)=O (stereo not shown) [Example 9],6.03,–,–,13.3,2.56
[2H]C([2H])([2H])NC(=O)c1cnc(NC(=O)C2CC2)cc1Nc1cccc(-c2ccn(CC(F)F)n2)c1OC [Example 36],8.38,7.00,7.40,–,–
[2H]C([2H])([2H])NC(=O)c1cnc(NC(=O)C2CC2)cc1Nc1cccc(-c2ccn(CC(C)(C)O)n2)c1OC [Example 40],8.41,6.77,6.80,–,–
CNC(=O)c1cnc(NC(=O)C2CC2)cc1Nc1ccccc1C(C)(C)O [Example 19],6.14,5.24,5.07,–,–
CNC(=O)c1cnc(NC(=O)C2CC2)cc1Nc1cccc(-c2cnn(C)c2)c1OC [Example 42],8.14,7.30,7.70,–,–
CNC(=O)c1cnc(NC(=O)C2CC2)cc1Nc1cccc(-c2nnc[nH]2)c1OC [Example 29],8.26,7.70,7.52,–,–
CNC(=O)c1cnc(NC(=O)C2CC2)cc1Nc1cccc(F)c1S(C)(=O)=O [Example 18],6.27,5.18,5.00,–,–
CNC(=O)c1cnc(NC(=O)Cc2ccc(OC)cc2)cc1Nc1ccccc1S(C)(=O)=O [Example 12],6.64,5.35,6.24,–,–
[2H]C([2H])([2H])NC(=O)c1cnc(NC(=O)C2CC2)cc1Nc1cccc(-c2ccn(C)n2)c1OC [Example 34],8.19,7.70,8.06,–,–

Structure (SMILES),pEC50 [1],pIC50 [2],pIC50 [3],IC50 [2] [µM],IC50 [3] [µM]
CNC(=O)Nc1cc(Nc2ccccc2S(C)(=O)=O)c(C(=O)NC)cn1 [Example 17],6.70,4.94,5.02,–,–
[2H]C([2H])([2H])NC(=O)c1cnc(NC(=O)C2CC2)cc1Nc1cccc(-c2ccnn2C)c1OC [Example 35],7.40,7.22,6.55,–,–
CNC(=O)c1cnc(NC(=O)Nc2ccccc2)cc1Nc1ccccc1S(C)(=O)=O [Example 27],6.54,–,–,3.17,3.06
[2H]C([2H])([2H])NC(=O)c1cnc(NC(=O)C2CC2)cc1Nc1cccc(-c2csc(C)n2)c1OC [Example 45],8.25,8.00,8.00,–,–
CNC(=O)c1cnc(NC(=O)C2CC2)cc1Nc1ccc(F)cc1S(C)(=O)=O [Example 15],7.30,6.16,6.47,–,–
CNC(=O)c1cnc(NC(=O)C2CC2F)cc1Nc1ccccc1S(C)(=O)=O (stereo not shown) [Example 22],7.10,5.67,5.91,–,–
CCNC(=O)Nc1cc(Nc2ccccc2S(C)(=O)=O)c(C(=O)NC)cn1 [Example 16],7.05,4.90,5.47,–,–
CNC(=O)c1cnc(NC(=O)C2CCOCC2)cc1Nc1ccccc1S(C)(=O)=O [Example 4],6.12,5.68,4.90,–,–
CNC(=O)c1cnc(NC(=O)C2CC2)cc1Nc1ccccc1S(C)(=O)=O [Example 1],7.70,6.52,6.62,–,–
CNC(=O)c1cnc(NC(=O)C2CC2)cc1Nc1cccc(-c2ccn(C)n2)c1OC [Example 32],8.79,8.14,8.15,–,–
CNC(=O)c1cnc(NC(=O)COC)cc1Nc1ccc(F)c(F)c1OC [Example 23],5.99,4.90,5.41,–,–
CNC(=O)c1cnc(NC(=O)Cc2ccccn2)cc1Nc1ccccc1S(C)(=O)=O [Example 10],6.42,5.34,5.22,–,–
CNC(=O)c1cnc(NC(=O)[C@@H]2CCCO2)cc1Nc1ccccc1S(C)(=O)=O [Example 3],6.08,5.19,4.90,–,–
CNC(=O)c1cnc(NC(=O)C2CCC2)cc1Nc1ccccc1S(C)(=O)=O [Example 14],6.77,5.50,6.06,–,–
[2H]C([2H])([2H])NC(=O)c1cnc(NC(=O)C2CC2)cc1Nc1cccc(-c2ncn(C)n2)c1OC [Example 31],8.42,8.32,8.00,–,–
CNC(=O)c1cnc(NC(=O)C2CCCCC2)cc1Nc1ccccc1S(C)(=O)=O [Example 5],6.10,5.73,5.05,–,–
CNC(=O)c1cnc(NC(=O)C2CC2)cc1Nc1cc(F)ccc1S(C)(=O)=O [Example 20],6.82,5.84,5.92,–,–
[2H]C([2H])([2H])NC(=O)c1cnc(NC(=O)C2CC2)cc1Nc1cccc(-c2cnn(C)c2)c1OC [Example 43],8.60,7.22,7.70,–,–
CNC(=O)c1cnc(NC(C)=O)cc1Nc1ccc(F)c(F)c1OC [Example 24],6.38,4.95,5.14,–,–
[2H]C([2H])([2H])NC(=O)c1cnc(NC(=O)C2CC2)cc1Nc1cccc(-c2ccn(CC)n2)c1OC [Example 37],8.45,6.92,7.15,–,–
[2H]C([2H])([2H])NC(=O)c1cnc(NC(=O)C2CC2)cc1Nc1cccc(-c2ccn(CCC#N)n2)c1OC [Example 41],8.56,–,–,0.19,0.09
